Two compounds from ChEMBL document CHEMBL5678818, “Discovery of potent SOS1 inhibitors that block RAS activation via disruption of the RAS-SOS1 interaction” (Proc Natl Acad Sci U S A, 2019) can be followed below.

Structures are written as SMILES.

Experiment [1] concerns the target T1, Serine/threonine-protein kinase DCLK2 (Homo sapiens) (UniProt Q8N568).
T1 sequence (whole entry): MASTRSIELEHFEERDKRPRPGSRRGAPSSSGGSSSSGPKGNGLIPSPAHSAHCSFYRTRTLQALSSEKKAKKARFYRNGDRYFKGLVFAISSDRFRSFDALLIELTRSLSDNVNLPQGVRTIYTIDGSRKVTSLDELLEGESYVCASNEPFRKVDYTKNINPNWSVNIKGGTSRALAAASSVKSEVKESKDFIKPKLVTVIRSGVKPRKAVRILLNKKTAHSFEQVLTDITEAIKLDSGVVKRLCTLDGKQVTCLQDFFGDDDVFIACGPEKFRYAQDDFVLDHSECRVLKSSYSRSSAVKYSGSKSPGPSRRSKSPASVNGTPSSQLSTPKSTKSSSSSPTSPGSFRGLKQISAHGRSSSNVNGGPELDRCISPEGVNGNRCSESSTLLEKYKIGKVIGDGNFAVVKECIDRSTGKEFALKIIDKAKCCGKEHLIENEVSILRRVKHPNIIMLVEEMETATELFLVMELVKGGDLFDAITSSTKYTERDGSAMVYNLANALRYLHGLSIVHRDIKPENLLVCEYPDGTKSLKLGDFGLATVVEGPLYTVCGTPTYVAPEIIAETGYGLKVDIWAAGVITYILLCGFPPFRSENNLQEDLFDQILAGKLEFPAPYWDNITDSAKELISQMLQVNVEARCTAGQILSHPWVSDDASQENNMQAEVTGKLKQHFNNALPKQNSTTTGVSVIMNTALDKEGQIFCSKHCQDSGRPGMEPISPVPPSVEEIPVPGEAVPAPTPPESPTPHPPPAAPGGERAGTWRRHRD
The experiment in a line: Inhibition of DCAMKL2 (unknown origin) assessed as residual activity at 1000 nM by KINOMEscan analysis relative to control.

Experiment [2] deals with T2, Ephrin type-B receptor 3 (Homo sapiens) (UniProt P54753).
T2 sequence (whole entry): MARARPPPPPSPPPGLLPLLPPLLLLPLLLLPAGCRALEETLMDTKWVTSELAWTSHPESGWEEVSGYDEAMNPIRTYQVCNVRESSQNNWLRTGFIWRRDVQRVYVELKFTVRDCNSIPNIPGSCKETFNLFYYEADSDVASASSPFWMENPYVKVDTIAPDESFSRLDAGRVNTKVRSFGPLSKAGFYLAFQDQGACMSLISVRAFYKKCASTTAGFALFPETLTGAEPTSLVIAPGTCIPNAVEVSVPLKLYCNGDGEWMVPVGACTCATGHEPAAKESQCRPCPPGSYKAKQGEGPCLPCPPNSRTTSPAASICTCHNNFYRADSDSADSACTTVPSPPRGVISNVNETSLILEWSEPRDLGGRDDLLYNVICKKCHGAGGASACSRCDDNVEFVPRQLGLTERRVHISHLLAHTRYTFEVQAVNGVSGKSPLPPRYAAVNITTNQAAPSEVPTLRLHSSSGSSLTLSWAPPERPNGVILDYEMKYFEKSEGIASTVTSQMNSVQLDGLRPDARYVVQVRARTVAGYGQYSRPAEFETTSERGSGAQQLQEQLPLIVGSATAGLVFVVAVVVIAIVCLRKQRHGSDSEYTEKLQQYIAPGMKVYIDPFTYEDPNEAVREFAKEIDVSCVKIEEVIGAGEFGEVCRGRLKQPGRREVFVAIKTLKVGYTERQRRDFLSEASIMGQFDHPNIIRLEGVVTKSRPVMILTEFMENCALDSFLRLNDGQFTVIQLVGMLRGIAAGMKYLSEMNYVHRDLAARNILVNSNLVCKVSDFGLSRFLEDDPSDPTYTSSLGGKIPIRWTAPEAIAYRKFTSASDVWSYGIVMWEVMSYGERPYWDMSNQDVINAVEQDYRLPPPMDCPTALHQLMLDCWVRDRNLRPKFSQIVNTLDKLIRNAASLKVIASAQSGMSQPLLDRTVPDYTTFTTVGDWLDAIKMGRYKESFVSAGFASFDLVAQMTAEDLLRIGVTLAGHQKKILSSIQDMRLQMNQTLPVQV
The experiment in a line: Inhibition of EPHB3 (unknown origin) assessed as residual activity at 1000 nM by KINOMEscan analysis relative to control.

Experiment [3] concerns Mast/stem cell growth factor receptor Kit (Homo sapiens), P10721 [V559D]. Description: Inhibition of KIT V559D mutant (unknown origin) assessed as residual activity at 1000 nM by KINOMEscan analysis relative to control.
Experiment [4] deals with Serine/threonine-protein kinase MRCK beta (Homo sapiens) (UniProt Q9Y5S2). The experiment in a line: Inhibition of MRCKB (unknown origin) assessed as residual activity at 1000 nM by KINOMEscan analysis relative to control.
The target of experiment [5] is Serine/threonine-protein kinase Nek7 (Homo sapiens) (UniProt Q8TDX7). The experiment in a line: Inhibition of NEK7 (unknown origin) assessed as residual activity at 1000 nM by KINOMEscan analysis relative to control.
Experiment [6] concerns the target T3, Mitogen-activated protein kinase kinase kinase 7 (Homo sapiens) (UniProt O43318).
T3 sequence (whole entry): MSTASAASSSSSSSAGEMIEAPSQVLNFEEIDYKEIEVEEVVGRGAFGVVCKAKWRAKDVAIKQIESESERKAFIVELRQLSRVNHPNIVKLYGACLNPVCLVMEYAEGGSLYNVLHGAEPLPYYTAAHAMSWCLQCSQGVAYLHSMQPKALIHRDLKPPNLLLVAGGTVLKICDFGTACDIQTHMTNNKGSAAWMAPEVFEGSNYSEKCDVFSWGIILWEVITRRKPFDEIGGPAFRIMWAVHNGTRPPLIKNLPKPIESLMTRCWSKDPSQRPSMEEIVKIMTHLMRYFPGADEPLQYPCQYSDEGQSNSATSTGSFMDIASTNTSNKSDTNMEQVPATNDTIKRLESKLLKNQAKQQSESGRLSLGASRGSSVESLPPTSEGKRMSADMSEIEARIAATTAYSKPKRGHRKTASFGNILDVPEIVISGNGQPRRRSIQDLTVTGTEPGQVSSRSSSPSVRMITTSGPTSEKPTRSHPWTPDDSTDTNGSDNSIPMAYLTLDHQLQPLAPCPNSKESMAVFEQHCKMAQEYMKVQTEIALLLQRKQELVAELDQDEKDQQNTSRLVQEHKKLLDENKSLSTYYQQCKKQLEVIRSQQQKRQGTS
Description: Inhibition of TAK1 (unknown origin) assessed as residual activity at 1000 nM by KINOMEscan analysis relative to control.

Sequence of Serine/threonine-protein kinase Nek7 (Homo sapiens) (Q8TDX7 whole entry, looked up): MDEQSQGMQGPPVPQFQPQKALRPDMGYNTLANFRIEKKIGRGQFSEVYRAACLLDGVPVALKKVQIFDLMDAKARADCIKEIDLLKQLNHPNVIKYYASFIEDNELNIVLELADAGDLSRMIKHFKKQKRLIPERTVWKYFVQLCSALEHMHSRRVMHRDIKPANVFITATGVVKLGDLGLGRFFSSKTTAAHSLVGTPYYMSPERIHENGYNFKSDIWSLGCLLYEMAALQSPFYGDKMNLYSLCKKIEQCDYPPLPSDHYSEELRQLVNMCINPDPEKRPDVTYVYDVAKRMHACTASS
Sequence of Serine/threonine-protein kinase MRCK beta (Homo sapiens) (Q9Y5S2 whole entry): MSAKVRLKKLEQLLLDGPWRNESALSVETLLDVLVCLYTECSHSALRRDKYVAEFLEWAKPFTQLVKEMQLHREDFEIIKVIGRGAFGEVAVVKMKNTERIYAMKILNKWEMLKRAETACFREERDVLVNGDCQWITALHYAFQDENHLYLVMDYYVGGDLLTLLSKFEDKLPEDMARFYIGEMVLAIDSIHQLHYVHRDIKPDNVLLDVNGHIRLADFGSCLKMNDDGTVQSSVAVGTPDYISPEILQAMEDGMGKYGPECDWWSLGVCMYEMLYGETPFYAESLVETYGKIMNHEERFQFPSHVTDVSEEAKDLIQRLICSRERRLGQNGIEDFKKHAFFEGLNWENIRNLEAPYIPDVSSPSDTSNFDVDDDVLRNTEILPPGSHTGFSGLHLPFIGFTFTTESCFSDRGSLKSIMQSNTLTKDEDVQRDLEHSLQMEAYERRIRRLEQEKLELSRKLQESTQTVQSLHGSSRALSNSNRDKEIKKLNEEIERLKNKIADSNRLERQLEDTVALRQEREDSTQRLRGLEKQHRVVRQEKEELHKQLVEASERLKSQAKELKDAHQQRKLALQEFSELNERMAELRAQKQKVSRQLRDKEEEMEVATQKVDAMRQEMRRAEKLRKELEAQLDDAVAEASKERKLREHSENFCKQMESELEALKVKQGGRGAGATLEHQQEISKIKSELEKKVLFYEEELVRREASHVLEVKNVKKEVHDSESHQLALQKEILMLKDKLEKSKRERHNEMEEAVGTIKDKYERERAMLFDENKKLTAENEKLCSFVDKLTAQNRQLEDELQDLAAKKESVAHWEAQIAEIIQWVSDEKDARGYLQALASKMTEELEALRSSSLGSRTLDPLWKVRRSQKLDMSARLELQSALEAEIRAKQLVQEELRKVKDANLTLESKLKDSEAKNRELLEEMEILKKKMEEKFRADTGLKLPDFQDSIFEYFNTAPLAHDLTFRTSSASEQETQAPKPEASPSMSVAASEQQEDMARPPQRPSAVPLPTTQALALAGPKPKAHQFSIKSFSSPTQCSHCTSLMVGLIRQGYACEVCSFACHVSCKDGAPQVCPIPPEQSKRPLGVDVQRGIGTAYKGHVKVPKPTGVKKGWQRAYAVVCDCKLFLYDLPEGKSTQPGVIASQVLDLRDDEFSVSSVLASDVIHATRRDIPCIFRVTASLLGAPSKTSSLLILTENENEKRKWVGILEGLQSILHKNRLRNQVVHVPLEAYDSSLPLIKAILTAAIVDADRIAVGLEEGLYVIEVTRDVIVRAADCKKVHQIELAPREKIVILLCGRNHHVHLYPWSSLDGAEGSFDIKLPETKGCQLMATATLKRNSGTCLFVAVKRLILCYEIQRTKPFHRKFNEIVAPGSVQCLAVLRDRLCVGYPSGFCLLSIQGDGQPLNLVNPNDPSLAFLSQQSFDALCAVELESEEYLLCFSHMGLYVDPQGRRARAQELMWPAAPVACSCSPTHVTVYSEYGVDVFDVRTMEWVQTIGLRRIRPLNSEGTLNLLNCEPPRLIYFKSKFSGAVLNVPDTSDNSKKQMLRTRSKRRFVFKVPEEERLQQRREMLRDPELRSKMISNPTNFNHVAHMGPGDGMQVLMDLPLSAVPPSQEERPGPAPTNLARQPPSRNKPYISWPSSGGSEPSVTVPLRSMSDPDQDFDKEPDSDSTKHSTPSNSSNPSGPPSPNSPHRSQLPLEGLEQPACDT
Sequence of Mast/stem cell growth factor receptor Kit (Homo sapiens), P10721 [V559D] (P10721 whole entry V559D): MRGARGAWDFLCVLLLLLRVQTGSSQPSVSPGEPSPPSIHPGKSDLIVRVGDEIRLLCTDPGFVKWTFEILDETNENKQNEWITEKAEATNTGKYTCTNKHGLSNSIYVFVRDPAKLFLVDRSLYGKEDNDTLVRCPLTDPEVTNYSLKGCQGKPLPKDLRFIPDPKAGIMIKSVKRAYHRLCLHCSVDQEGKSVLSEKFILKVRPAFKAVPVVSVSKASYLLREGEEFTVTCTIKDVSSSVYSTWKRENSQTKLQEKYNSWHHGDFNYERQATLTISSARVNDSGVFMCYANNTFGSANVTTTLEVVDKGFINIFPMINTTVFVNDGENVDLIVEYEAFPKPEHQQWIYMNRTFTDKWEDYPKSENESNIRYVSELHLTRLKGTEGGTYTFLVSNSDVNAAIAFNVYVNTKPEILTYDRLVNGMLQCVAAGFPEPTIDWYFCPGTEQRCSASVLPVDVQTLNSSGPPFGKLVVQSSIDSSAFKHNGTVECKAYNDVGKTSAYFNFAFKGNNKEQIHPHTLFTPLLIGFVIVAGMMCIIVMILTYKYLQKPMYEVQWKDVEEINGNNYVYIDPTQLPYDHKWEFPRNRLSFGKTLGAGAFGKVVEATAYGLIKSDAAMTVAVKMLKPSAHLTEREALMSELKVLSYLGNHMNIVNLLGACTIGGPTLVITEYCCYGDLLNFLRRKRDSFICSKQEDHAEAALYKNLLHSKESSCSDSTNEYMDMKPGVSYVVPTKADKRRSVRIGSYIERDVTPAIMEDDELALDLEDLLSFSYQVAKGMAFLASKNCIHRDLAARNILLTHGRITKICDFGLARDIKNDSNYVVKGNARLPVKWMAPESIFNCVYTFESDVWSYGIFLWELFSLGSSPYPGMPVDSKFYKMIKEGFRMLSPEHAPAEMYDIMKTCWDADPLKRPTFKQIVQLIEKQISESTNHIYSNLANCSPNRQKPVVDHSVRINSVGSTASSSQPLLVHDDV

In the case of `COc1cc2nc(C)nc(N[C@H](C)c3cccc(-c4cn[nH]c4)c3)c2cc1OC`, the Activity in experiment [1] worked out at 98%; in experiment [2] it was 100%; in experiment [3], 81%; in experiment [4], 56%; in experiment [5], 89%; in experiment [6], 100%.
For `COc1cc2ncnc(N[C@H](C)c3cccc4ccccc34)c2cc1OC`, the Activity in experiment [1] was 100%; in experiment [2], 100%; in experiment [3], 95%; in experiment [4], 100%; in experiment [5], 100%; in experiment [6], 85%.
